From US10100047B2, “Piperidine derivatives as orexin receptor antagonist” (SHANGHAI HAIYAN PHARMACEUTICAL TECHNOLOGY CO., LTD., priority 2014, dated 2018) come the findings set out here.

The target in one assay is T1, hOX2R (Homo sapiens, UniProt O43614).
T1 construct: expressed in transfected cells
T1 sequence (O43614 1-444): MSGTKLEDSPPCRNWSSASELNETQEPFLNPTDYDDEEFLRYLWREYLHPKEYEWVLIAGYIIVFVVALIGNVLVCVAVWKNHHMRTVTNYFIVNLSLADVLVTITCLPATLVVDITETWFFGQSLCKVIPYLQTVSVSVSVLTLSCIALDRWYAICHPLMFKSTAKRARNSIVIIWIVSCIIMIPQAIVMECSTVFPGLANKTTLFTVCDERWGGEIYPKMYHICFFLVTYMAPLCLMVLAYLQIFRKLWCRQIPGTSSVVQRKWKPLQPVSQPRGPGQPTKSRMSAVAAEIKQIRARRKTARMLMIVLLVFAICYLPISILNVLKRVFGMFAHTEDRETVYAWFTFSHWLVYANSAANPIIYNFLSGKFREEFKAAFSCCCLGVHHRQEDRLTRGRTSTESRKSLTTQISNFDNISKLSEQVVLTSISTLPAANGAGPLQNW
Nature of the assay: In vitro test of OX2R: calcium signal change in cells detected with FLIPR. The following applies: IC50 detected in FLIPR, hOX2R, HEK293-OX2 stable cell strain, Fluo-4 AM calcium signal, Orexin A at EC70. The class given is cell-based. The procedure:
(§1) The inhibitive effect of a compound on OX1 and OX2 GPCR receptor was evaluated by detecting calcium signal change in cells with FLIPR, and IC50 value of compound was used as an indication.
(§2) Experimental Materials: • Cell line: HEK293-OX1 and OX2 stable cell strain • HEK293-OX1 cell culture media (DMEM, Invitrogen#11960-044, 10% serum Gibco#10099141, L-Glutamine 1×, Gibco#25030, sodium pyruvate 1×, Gibco #11360, Geneticin 300 μg/ml, Gibco #10131). • HEK293-OX2 cell culture media (DMEM, Invitrogen#11960-044, 10% serum Gibco#10099141, L-Glutamine 1×, Gibco#25030, sodium pyruvate 1×, Gibco #11360, Geneticin 300 μg/ml, Gibco #10131, Blasticin 2 μg/ml, Invitrogen # R21001). • Pancreatic enzyme (Invitrogen, #25200-072) • DPBS (Hyclone, #SH30028.01B) • Fluo-4 AM, Invitrogen# F14202 • F-127, Invitrogen # P3000MP • Probenecid, Sigma # P8761 • 384-well cell plate, Greiner #781946 • 384-well compound plate, Greiner #781280 • CO2 incubator, Thermo#371 • Centrifuge, Eppendorf #5810R • Vi-cell cytometry, Beckman Coulter • POD 810 Plate Assembler Automatic microplate pretreatment system • Labcyte FLIPR, Molecular Device.
(§3) a) cell inoculation (HEK293-OX1 and HEK293-OX2 cells) • 1) The medium trypsin, and DPBS were preheated at 37° C. under water bath. Culture medium of cells was sucked and cells were washed with 10 mL DPBS. • 2) The preheated trypsin was added into the culture bottle which was rotated so that trypsin uniformly covered the bottle. It was placed in an incubator (37° C., 5% CO2) to digest for 1-2 minutes; • 3) Each T150 was suspended with 10-15 mL of culture medium, and centrifuged at 800 rpm for 5 minutes. Cells were resuspended with 10 mL medium, and 1 mL of the cell re-suspension was sucked out and counted with Vi-cell cytometry. • 4) The OX1 cells were diluted with culture medium to 5×10^5 cells/mL, and OX2 cells were diluted to 4×10^5 cells/mL. The diluted cells were added into 384 plate (Greiner. 781946) with multichannel pipettes (50 μL/hole, OX1 cells: 25000 cells/hole; and OX2 cells: 20000 cells/hole). The cell plate was placed in an incubator (37° C., 5% CO2) overnight.
(§4) b) loading of the compound: • 1) DMSO was used to dilute the compound into 20 mM by using 3-fold dilution. 8 gradients in duplicate wells were used. Echo liquid handler was used to add the compound into a compound plate. Then 20 μL buffer was added to ensure that the final DMSO concentration was 0.1%.
(§5) c) FLIPR Experiment: • 1) The cell culture medium in 384-well plate was washed away with a vacuum pump. 30 μL fluorescent dye Fluo4AM was added. […] 8 gradients in duplicate wells were used. Then the DMSO plate was prepared and the DMSO concentration was 0.5%. The cell plate, Orexin A plate, and DMSO plate were placed into FLIPR respectively, and the fluorescence values were read. • 3) EC70 value was calculated based on EC50 value of Orexin A. 5×EC70 solution was prepared and added into a 384-well compound plate with multichannel pipettes. The plate was placed on ice for preservation. • 4) In the FLIPR, the compound plate, 5×EC70 plate, cell plate and FLIPR tips were placed respectively. The program was run and the fluorescence values were read.
(§6) d) Data Analysis: Prism5.0 was used to analysis the data, and the IC50 value of the compound was calculated.
As for `Cc1ccc(-c2ncccn2)c(C(=O)N2C3CC[C@H]2CC[C@@H]3COc2cccnc2)c1` [Example 31], the IC50 came out at 221 nM.

In the case of `Cc1ccc(-c2ccncc2)c(C(=O)N2C3CC[C@H]2CC[C@@H]3COc2ccc(F)cn2)c1` [Example 13], the IC50 came out at 663 nM.

As to `O=C(c1ccc(F)cc1-n1nccn1)N1C2CC[C@H]1CC[C@@H]2COc1ccc(F)cn1` [Example 15], the IC50 came to 55 nM.

As for `O=C(c1cc(Cl)ccc1-n1nccn1)N1C2CC[C@H]1CC[C@@H]2COc1ccc(F)cn1` [Example 16], the IC50 was 440 nM.

For `Cc1ccc(-c2ncccn2)c(C(=O)N2C3CC[C@H]2CC[C@@H]3COc2ccc(F)cc2F)c1` [Example 30], the IC50 was found to be 262 nM.

In the case of `Cc1ccc(-c2ccccc2)c(C(=O)N2C3CC[C@H]2CC[C@@H]3COc2ccc(F)cn2)c1` [Example 12], the IC50 was found to be 206 nM.

On to `O=C(c1c(F)cccc1-n1nccn1)N1C2CC[C@H]1CC[C@@H]2COc1ccc(F)cn1` [Example 9], for which the IC50 is 15 nM.

Take `O=C(c1cc(C(F)(F)F)ccc1-c1ncccn1)N1C2CC[C@H]1CC[C@@H]2COc1ccc(F)cn1` [Example 35]: the IC50 was 1420 nM.

On to `Cc1nc(C(=O)N2C3CC[C@H]2CC[C@@H]3COc2ccc(F)cn2)c(-c2ccccc2)s1` [Example 10], for which the IC50 was found to be 73 nM.

As for `Cc1ccc(-c2ncccn2)c(C(=O)N2C3CCC(C(=O)Nc4ccccc4O)C2CC3)c1` (centres unmarked) [Example 27], the IC50 was determined as 3000 nM.

Regarding `Cc1cccc(S(=O)(=O)N2C3CC[C@H]2CC[C@@H]3COc2ccc(F)cn2)c1` [Example 22], the IC50 turned out to be 1370 nM.

As for `Cc1ccc(-c2ncccn2)c(C(=O)N2C3CCC(c4nc5ccccc5o4)C2CC3)c1` (centres unmarked) [Example 28], the IC50 turned out to be 23 nM.

In the case of `Cc1ccc(-n2cccn2)c(C(=O)N2C3CC[C@H]2CC[C@@H]3COc2ccc(F)cn2)c1` [Example 20], the IC50 was found to be 26 nM.

As for `Cc1ccc(-c2cncnc2)c(C(=O)N2C3CCC2[C@@H](COc2ccc(F)cn2)CC3)c1` (some centres unmarked) [Example 34], the IC50 worked out at 2510 nM.

Turning to `O=C(c1cc(F)ccc1-n1nccn1)N1C2CC[C@H]1CC[C@@H]2COc1ccc(F)cn1` [Example 14], the IC50 came out at 20 nM.

With `Cc1ccc(-c2ncccn2)c(C(=O)N2C3CCC2[C@@H](COc2ccccn2)CC3)c1` (some centres unmarked) [Example 23], the concentration for half-maximal inhibition (IC50) is 97 nM.

The target in a further assay is T2, hOX1R (Homo sapiens, UniProt O43613).
T2 construct: expressed in transfected cells
T2 sequence (O43613 1-425): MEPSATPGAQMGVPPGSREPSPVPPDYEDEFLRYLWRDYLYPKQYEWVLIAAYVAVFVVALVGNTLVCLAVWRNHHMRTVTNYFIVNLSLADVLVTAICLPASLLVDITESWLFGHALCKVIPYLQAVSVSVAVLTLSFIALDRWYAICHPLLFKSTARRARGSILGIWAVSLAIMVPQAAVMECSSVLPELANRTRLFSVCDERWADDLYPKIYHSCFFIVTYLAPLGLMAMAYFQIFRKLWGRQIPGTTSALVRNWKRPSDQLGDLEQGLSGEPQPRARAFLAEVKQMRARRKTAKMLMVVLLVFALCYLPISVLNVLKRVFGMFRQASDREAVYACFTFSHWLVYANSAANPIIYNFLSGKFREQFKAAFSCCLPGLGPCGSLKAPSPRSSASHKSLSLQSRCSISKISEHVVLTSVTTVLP
Description: In vitro test of OX1R: calcium signal change in cells detected with FLIPR. The format is cell-based. Particulars: IC50 detected in FLIPR, hOX1R, HEK293-OX1 stable cell strain, Fluo-4 AM calcium signal, Orexin A at EC70. The procedure: as §1, §2, §3, §4, §5, §6
Take `Cc1ccc(-c2ncccn2)c(C(=O)N2C3CC[C@H]2CC[C@@H]3COc2cccnc2)c1` [Example 31]: the IC50 came to 305 nM.

In the case of `Cc1ccc(-c2ccncc2)c(C(=O)N2C3CC[C@H]2CC[C@@H]3COc2ccc(F)cn2)c1` [Example 13], the IC50 came to 47 nM.

Take `O=C(c1ccc(F)cc1-n1nccn1)N1C2CC[C@H]1CC[C@@H]2COc1ccc(F)cn1` [Example 15]: the IC50 was found to be 37 nM.

As to `O=C(c1cc(Cl)ccc1-n1nccn1)N1C2CC[C@H]1CC[C@@H]2COc1ccc(F)cn1` [Example 16], the IC50 came out at 56 nM.

With `Cc1ccc(-c2ncccn2)c(C(=O)N2C3CC[C@H]2CC[C@@H]3COc2ccc(F)cc2F)c1` [Example 30], the IC50 came to 489 nM.

For `Cc1ccc(-c2ccccc2)c(C(=O)N2C3CC[C@H]2CC[C@@H]3COc2ccc(F)cn2)c1` [Example 12], the IC50 amounted to 219 nM.

Consider `O=C(c1c(F)cccc1-n1nccn1)N1C2CC[C@H]1CC[C@@H]2COc1ccc(F)cn1` [Example 9], for which the IC50 came to 24 nM.

As for `O=C(c1cc(C(F)(F)F)ccc1-c1ncccn1)N1C2CC[C@H]1CC[C@@H]2COc1ccc(F)cn1` [Example 35], the IC50 is 2070 nM.

Turning to `Cc1nc(C(=O)N2C3CC[C@H]2CC[C@@H]3COc2ccc(F)cn2)c(-c2ccccc2)s1` [Example 10], the half-maximal inhibitory concentration (IC50) stood at 29 nM.

For the compound `Cc1ccc(-c2ncccn2)c(C(=O)N2C3CCC(C(=O)Nc4ccccc4O)C2CC3)c1` (centres unmarked) [Example 27], the 50% inhibitory concentration (IC50) turned out to be 3000 nM.

As for `Cc1cccc(S(=O)(=O)N2C3CC[C@H]2CC[C@@H]3COc2ccc(F)cn2)c1` [Example 22], the IC50 turned out to be 2420 nM.

For the compound `Cc1ccc(-c2ncccn2)c(C(=O)N2C3CCC(c4nc5ccccc5o4)C2CC3)c1` (centres unmarked) [Example 28], the IC50 turned out to be 34 nM.

For the compound `Cc1ccc(-n2cccn2)c(C(=O)N2C3CC[C@H]2CC[C@@H]3COc2ccc(F)cn2)c1` [Example 20], the concentration for half-maximal inhibition (IC50) was found to be 7 nM.

As for `Cc1ccc(-c2cncnc2)c(C(=O)N2C3CCC2[C@@H](COc2ccc(F)cn2)CC3)c1` (some centres unmarked) [Example 34], the IC50 worked out at 2300 nM.

For `O=C(c1cc(F)ccc1-n1nccn1)N1C2CC[C@H]1CC[C@@H]2COc1ccc(F)cn1` [Example 14], the IC50 stood at 16 nM.

For `Cc1ccc(-c2ncccn2)c(C(=O)N2C3CCC2[C@@H](COc2ccccn2)CC3)c1` (some centres unmarked) [Example 23], the IC50 worked out at 45 nM.
